Laboratory results taken from patent US20220016144A1, “STABLE AQUEOUS COMPOSITION COMPRISING OLIGOSACCHARIDES” (SOCIETE DES PRODUITS NESTLE S.A., priority 2018, published 2022).

Experiment: Example 2: HPLC analysis of oligosaccharides, fructose isomers and lactose at pH 6 and 7 over aseptic filling and room temperature storage
Assay type: physicochemical
Protocol: Oligosaccharides 2′Fucosyllactose (2′FL) and Lacto-N-neotetraose (LNnT) were mixed in a 10:1 ratio (w/w) and dissolved in water to a final concentration of 10% (w/v). Out of this solution, […] samples were generated respectively having pH 6 and 7 (by addition of KOH) Such samples were subjected to heat treatment (UHT) followed by aseptic filling of small monodose bottles. Solutions at different pHs were analysed before and after filling of bottles as well as after different times of storage at room temperature (21-26° C.). Analysis was done by HPLC using a TSK gel Amide-80 (150 mm×4.6 mm, particle size: 3 μm) column and detection via a charged aerosol detector. F or 2′FL (FIG. 2a), LNnT (FIG. 2d), the fructose isomers of the added 2′FL (indicated as FL lactulose in the graphs, FIG. 2d) and of added LNnT (indicated as LNnT isomer in the graphs, FIG. 2e) as well as for their degradation products (lactose, FIG. 2c). The pH of the solution was also measured. All data are expressed as % of added oligosaccharides.

Question: Which results are given for `CC(=O)N[C@H]1[C@H](O[C@H]2[C@@H](O)[C@@H](CO)O[C@@H](O[C@H]3[C@H](O)[C@@H](O)C(O)O[C@@H]3CO)[C@@H]2O)O[C@H](CO)[C@@H](O[C@@H]2O[C@H](CO)[C@H](O)[C@H](O)[C@H]2O)[C@@H]1O` (mixture of isomers) [LNnT, lacto-N-neotetraose]?
Answer: LNnT isomers formation (pH 6, compared with pH 7): much lower; oligosaccharide amounts at aseptic filling and over time (pH 6, UHT, aseptic filling, storage at 21-26° C., 2′FL:LNnT 10:1, 10% w/v): much more stable
